Values of other authors as cited in patent US5298499A, “S-2-(substituted ethylamino)ethyl phosphorothioates” (Research Triangle Institute, priority 1991, dated 1994).
Like-named read-outs stand apart in the source and are kept apart here.

Experiments:
[1] = background statement

Question: For NCCCNCCS [Compound 2], which radioprotective activity (literature) is on record?
Answer: Its radioprotective activity is “known to be a radioprotective agent”.

Question: For NC(=O)CCNCCS [Compound 3, 2-(2.varies.-carbamidoethylamino)ethanethiol], which radioprotective activity (literature) is on record?
Answer: Its radioprotective activity is “good radioprotective activity, comparable to that of compound 2”.

Question: For NCCCNCCSP(=O)(O)O [WR2721, S-2-[3-aminopropylamino]ethylphosphorothioicacid], which radioprotective activity (in vivo) is on record?
Answer: The radioprotective activity was “most effective agent”.

Question: And the “uptake in malignant and healthy tissue” value [1]?
Answer: Its value is “comparable uptake”.
